Columns and labels:
NIK = molecular target: T1, NIK (Mus musculus, UniProt Q9WUL6); experiment: BAFF-induced NIK activation in B cells (Western blotting, phospho-NIK); assay type: cell-based
T1 construct: Proteins were extracted with cell lysate and used as samples; endogenous in cells; host or cells: primary splenic B cells from 6-week-old male Balb/c mice
Procedure: (§1) Spleens were harvested from 6-week-old male Balb/c mice and B cells were isolated. After isolation, the cells were seeded in […] dish and cultured in RPMI 1640 medium for 1 day and used as control. In addition, B cells were seeded into 100 mm^2 dish, and after 1 day of culture, 100 ng/mL BAFF was added and cultured for 1 h. Furthermore, B cells were seeded in […] dish, and after 1 day of culture, 100 μM mangiferin, 10 μM mangiferin 8a, 10 μM norathyriol, 20 μM 1,3,5,6-tetrahydroxyxanthone, 10 μM xanthohydrol, 10 μM of α-mangostin, and 10 μM of γ-mangostin were added to B cells, and after 23 h, 100 ng/mL BAFF was added to each, and the cells were incubated for 1 h. All were incubated at 37° C. and 5% CO2.
(§2) Proteins were extracted with cell lysate and used as samples. Each sample was transferred to a PVDF membrane after SDSPAGE and assayed with anti-phospho-NIK, anti-NIK, anti-NF-κB p52, anti-NF-κB p65 and anti-Lamin antibodies.
(§3) The antibody species is indicated in the vertical direction. Specifically, in the case of anti-phospho-NIK antibody (described as “Phospho-NIK”), anti-NIK antibody (described as “NIK”), anti-NF-κB p52 antibody (described as “NF-κB p52 nuclear”), anti-NF-κB p65 antibody (described as “NF-κB p65 nuclear”) and anti-Lamin antibody (described as “Lamin”).

Th1 cells = experiment: Th1 cell activation in inflammation-induced mouse model (IFNγ flow cytometry); assay type: in vivo; details: DBA/1J mice, Freund's complete adjuvant + bovine type2 collagen; oral 10 mg/kg daily 20 days; thymus cells; vs vehicle group
Procedure: (§4) Equal volume mixtures of Freund's complete adjuvant and Bovine type2 collagen were administered to 6-week-old male DBA/1J mice (Japan SLC Inc.) at 0.1 mL (day 0 of the study). 21 days later, DBA/1J mice were again injected with 0.1 mL of the above mixture for secondary immunization. After the second immunization, mice were orally treated with 10 mg/kg of mangiferin 8a and 10 mg/kg of norathyriol daily for 20 days. 20 days later, thymus glands were harvested from mice and stained with anti-CD4 and anti-IFNγ antibodies, which are Th1 cell markers, and expression of IFNγ (CD4 positive) was measured using BD LSRFortessa.

Treg cells = experiment: Treg cell activation in inflammation-induced mouse model (Foxp3 flow cytometry); assay type: in vivo; details: DBA/1J mice, Freund's complete adjuvant + bovine type2 collagen; oral 10 mg/kg daily 20 days; thymus cells; vs vehicle group
Procedure: as §4, with “anti-CD4, anti-CD25” for “anti-CD4”, “anti-Foxp3” for “anti-IFNγ”, “Treg” for “Th1”, “Foxp3” for “IFNγ”, “(CD4 positive and CD25” for “(CD4”

Th17 cells = experiment: Th17 cell activation in inflammation-induced mouse model (IL-17A flow cytometry); assay type: in vivo; details: DBA/1J mice, Freund's complete adjuvant + bovine type2 collagen; oral 10 mg/kg daily 20 days; thymus cells; vs vehicle group
Procedure: as §4, with “anti-IL-17A” for “anti-IFNγ”, “Th17” for “Th1”, “IL-17A” for “IFNγ”

[1] = test system: Balb/c mice with atopic dermatitis (MC903 applied to the auricle); experiment: Auricular swelling in MC903-induced atopic dermatitis mice; assay type: in vivo, mouse
Procedure: MC903 at 2 nM was applied to the right auricle of a 6-week-old male Balb/c (Japan SLC Inc.). Starting 8 h later, 5% norathyriol aqueous solution (1 mL of ethanol containing […] of norathyriol), betamethasone ointment, and delgocitinib ointment were applied to the auricle for 7 days. The measurement of auricular skin swelling was calculated by calipers. The day on which the first application of the compound was made was defined as day 0. Betamethasone and delgocitinib are currently in clinical use in atopic dermatitis and were used as control drugs in this example.
Those without MC903 or norathyriol are called the control group, those with MC903 are called the vehicle group, those with 5% norathyriol aqueous are called the 5% norathyriol-applied group, those with betamethasone ointment are called the betamethasone-applied group, and those with delgocitinib ointment is referred to as the delgocitinib-applied group.
Solid white circles indicate the control group (labeled “control”). Solid black squares indicate the vehicle group (labeled “vehicle”), dotted black diamonds indicate the 5% norathyriol aqueous application group (labeled “MC903+5% norathyriol”), dashed black crosses indicate the betamethasone application group (labeled “MC903+betamethasone ointment”), and single-dotted black dots indicate the delgocitinib application group (labeled “MC903+delgocitinib ointment”).

NF-κB p52 = experiment: LPS-stimulated B cells, nuclear NF-κB p52 (Western blotting); assay type: cell-based, mouse; details: 10 μM compound; vs 10 μg/mL LPS
Procedure: as §1, with “10 μg/mL LPS” for “100 ng/mL BAFF”, “culture,” for “culture, 100 μM mangiferin,”, “8a” for “8a, 10 μM norathyriol, 20 μM 1,3,5,6-tetrahydroxyxanthone, 10 μM xanthohydrol, 10 μM of α-mangostin,”, “norathyriol” for “of γ-mangostin”
as §2, §3

T1 sequence (Q9WUL6 whole entry): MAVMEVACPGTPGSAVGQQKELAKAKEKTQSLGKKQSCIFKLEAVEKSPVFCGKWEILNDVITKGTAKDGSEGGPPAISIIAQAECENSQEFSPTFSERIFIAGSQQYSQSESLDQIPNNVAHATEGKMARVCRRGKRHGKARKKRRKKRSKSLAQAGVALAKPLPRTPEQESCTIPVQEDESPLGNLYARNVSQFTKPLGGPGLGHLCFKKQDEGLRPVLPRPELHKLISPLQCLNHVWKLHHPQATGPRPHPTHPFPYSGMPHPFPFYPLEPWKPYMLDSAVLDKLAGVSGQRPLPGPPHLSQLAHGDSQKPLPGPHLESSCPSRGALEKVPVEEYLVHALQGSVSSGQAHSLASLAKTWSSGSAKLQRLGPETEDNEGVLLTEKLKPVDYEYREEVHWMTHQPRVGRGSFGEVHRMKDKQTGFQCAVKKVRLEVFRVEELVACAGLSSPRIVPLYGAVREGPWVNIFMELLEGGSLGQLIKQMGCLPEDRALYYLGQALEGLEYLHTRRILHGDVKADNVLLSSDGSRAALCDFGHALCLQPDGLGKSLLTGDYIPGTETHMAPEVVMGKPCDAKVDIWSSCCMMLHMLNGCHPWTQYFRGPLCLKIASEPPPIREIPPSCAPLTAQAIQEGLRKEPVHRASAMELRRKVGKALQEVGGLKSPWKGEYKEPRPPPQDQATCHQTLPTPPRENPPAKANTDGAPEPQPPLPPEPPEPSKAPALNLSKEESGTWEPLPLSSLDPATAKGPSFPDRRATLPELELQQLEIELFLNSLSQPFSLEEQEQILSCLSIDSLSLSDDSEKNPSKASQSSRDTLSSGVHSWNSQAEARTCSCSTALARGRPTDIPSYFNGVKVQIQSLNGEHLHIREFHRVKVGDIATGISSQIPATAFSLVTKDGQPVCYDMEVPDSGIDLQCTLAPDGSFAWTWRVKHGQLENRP

phospho-NIK band (immunoblotting) (NIK; 100 ng/mL BAFF 1 h after 23 h compound, 100 μM mangiferin, 20 μM 1,3,5,6-tetrahydroxyxanthone, 10 μM others): fainter
Compound: O=c1c2cc(O)c(O)cc2oc2cc(O)cc(O)c12 [norathyriol, 1,3,6,7-tetrahydroxyxanthone]
inhibition of NIK activity compared with mangiferin (NIK; general statement in the description, referring to the examples): more inhibition of NIK activity than mangiferin
IFNγ expression (CD4 positive) (Th1 cells): markedly reduced
Foxp3 expression (CD4 positive and CD25 positive) (Treg cells): slightly increased
IL-17A expression (CD4 positive) (Th17 cells): markedly reduced
auricular skin swelling ([1]; male Balb/c, MC903 on right auricle, 5% norathyriol aqueous solution, betamethasone ointment or delgocitinib ointment applied to auricle for 7 days, vs vehicle group): swelling was significantly reduced
swelling and redness of auricular skin (photograph) ([1]; right auricle at day 7, topical 5% norathyriol aqueous, betamethasone ointment, delgocitinib ointment): showed some redness, but not as much as in the target group
nuclear NF-κB p52 band (immunoblotting) (NF-κB p52): fainter

Source: patent US20260007634A1, “PHARMACEUTICAL COMPOSITIONS FOR THE TREATMENT OF ALLERGIC DISEASES” (KINKI UNIVERSITY, priority 2022, published 2026)
